Measured values: US5616593A, “Compositions containing piperine” (priority 1993, dated 1997)

Legend:
[1] = Clinical study comparing bio-availability of two amlodipine formulations (with and without piperine); format: in vivo, human (healthy volunteers); conditions: with vs without piperine; amlodipine 10 mg, piperine 5 mg, hard gelatin capsules; 12 healthy volunteers
Experimental: Dosage Form: Hard gelatin capsules
Amlodipine and piperine were milled. The two components were blended together.
The homogenecity of five random samples of the mixture was confirmed from reproducible analysis. The formulation was then encapsulated in hard gelatin capsule in hand-operated capsule filling machine.
To compare the bio-availability of two formulations containing amlodipine (with and without piperine) a clinical study was conducted in 12 healthy volunteers.

[2] = Absorption of certain drugs through gastro-intestinal membranes; design: species or system human; conditions: through membranes of gastro-intestinal tract
[3] = Retention of certain drugs in the body; design: species or system human; conditions: combined with piperine
serum proteins = test: Binding of the serum proteins; design: species or system human; conditions: combined with drug
[4] = tested on: natural immune mechanism of the body; test: Stimulation of natural immune mechanism / antibody production; design: species or system human
[5] = Intrinsic pharmaceutical or medicinal properties of piperine; conditions: piperine alone
[6] = cited from earlier work
[7] = combined with known anti-tuberculosis and/or anti-leprosy drugs; cited from earlier work
[8] = Clinical trial comparing bio-availability of two pentazocine formulations (with and without piperine); format: in vivo, human (healthy volunteers); conditions: with vs without piperine; pentazocine 25 mg, piperine 5 mg, hard gelatin capsules; 12 healthy volunteers
Experimental: Pentazocine -- -- 25 mg.
Dosage Form: Hard gelatin capsules.
Both pentazocine and piperine were milled and were then blended together. With repeated sieving, both the components were mixed to a homogenous mixture. Five samples of mixtures were randomly selected and their homogenecity was confirmed by reproducible analysis. With the help of hand-operated capsule filling machine, the formulation was encapsulated in hard gelatin capsule.
A clinical trial was conducted in 12 healthy volunteers in order to compare the bio-availability of two formulations containing pentazocine (with and without piperine).

For CCOC(=O)C1=C(COCCN)NC(C)=C(C(=O)OC)C1c1ccccc1Cl (stereo not shown) [Amlodipine], the “blood levels of the active ingredient amlodipine” value [1] was “increased blood levels”.
With O=C(/C=C/C=C/c1ccc2c(c1)OCO2)N1CCCCC1 [Piperine] the “absorption of certain drugs” value [2] was “increase the absorption of certain drugs”, the “retention of certain drugs in the human body” value [3] was “retain certain drugs when combined with it in the human body for a longer period of time” and the “binding of the serum proteins” value (serum proteins) was “increase the binding of the serum proteins”. For the same molecule, the “stimulation of natural immune mechanism, production of antibodies against microbial infections” value [4] was “stimulate the natural immune mechanism of the body so as to enhance the production of antibodies against microbial infections”, the “pharmaceutical or medicinal properties of piperine as such” value [5] was “does not have any pharmaceutical or medicinal properties” and the “solubility in organic solvents” value ([6]; benzene, chloroform, ether, ethyl acetate, dichloromethane, alcohol, acetic acid) was “soluble in benzene, chloroform, ether, ethyl acetate, dichloromethane, alcohol, acetic acid”. The “solubility in water and petroleum ether” value ([6]; water, petroleum ether) was “insoluble in water, and petroleum ether” and the “therapeutic efficacy of anti-tuberculosis and/or anti-leprosy drugs” value [7] was “increased therapeutic efficacy”.
For CC(C)=CCN1CCC2(C)c3cc(O)ccc3CC1C2C (stereo not shown) [pentazocine], the “blood levels of the active ingredient pentazocine” value [8] was “increased blood levels”.
